Results: patent US20020094998A1, “Methods and compositions for treatment of ocular neovascularization and neural injury” (priority 2000, published 2002)

What was measured:
[1] = test system: retina; conditions: cited from earlier work
[2] = test system: CNV; conditions: FIG. 1B
[3] = test system: wet age-related macular degeneration patient
Method: A patient presents with “wet” age-related macular degeneration (ARMD) in the foveal region of the right eye, and their condition is found to be suitable for photodynamic therapy (PDT). For one week prior to the date of scheduled treatment, the patient is given a topical dosage of brimonidine twice a day in a standard formulation.
The day of scheduled PDT treatment, the patient is administered 6 mg/M^2 of verteporfin. Fifteen minutes after the start of the infusion, the patient is administered Irradiance of 600 mW/cm^2 and total fluence of 50 Joules/cm^2 from an Argon light laser.
Brimonidine administration is continued every two days throughout the 12 week evaluation period.
Evaluation of neural health is assayed 1 week, 4 weeks, and 12 weeks following treatment by visual inspection of the retina and test of visual acuity.

[4] = test system: Brown Norway rats; test: Electroretinography (a-wave) after verteporfin PDT in rats treated i.p. with agent; type: in vivo, rat; conditions: for A Wave Amplitude PDT Eye: ERG 3-4 hours after PDT; for A Wave Amplitude PDT Eye / A Wave Amplitude Control Eye: N 4; for A Wave Amplitude % Control: PDT eye vs control eye, * p ≦ 0.05 vs vehicle; for A Wave Amplitude Control Eye: eye not treated with PDT; for loss in retinal function induced by PDT: rats, i.p. 1 hour before PDT, a-wave amplitudes
Method: Brown Norway rats weighing 200-400 grams were treated intraperitoneally (i.p.) with either brimonidine, AGN 199960, or the saline vehicle. One hour later, the rats were unilaterally treated with PDT and evaluated by electroretinography 3-4 hours later. There were 4 rats in each treatment group.
PDT was conducted as follows: Mydriasis was induced in one eye of each rat with a drop of 0.5% tropicamide. Rats were then anesthetized with isoflurane and placed on a platform in front of a slit lamp coupled to a Coherent diode laser for verteporfin PDT (689 nm). Verteporfin was injected intravenously at a dose of 6 mg/m^2. […] Three to four hours later, the treated animals were again dilated and anesthetized, then electroretinograms (ERGs) were evaluated in each eye.
ERGs are collected non-invasively by measuring mass-cell response arising due to retinal activity proceeding from a light stimulus. The first cells stimulated by a flash light stimulation are the photoreceptors at the outer retinal layer. This response is measured as an a-wave. As the signal is transduced to inner retinal neurons, a b-wave is produced. The a-wave reflects activity in the photoreceptors and the b-wave reflects activity in both photoreceptors and bipolar cells.
Before being subjected to the ERG test, the rats were placed in the dark (dark-adapted) for 15 minutes. Two types of ERG apparatus were used to generate the results below. In the initial brimonidine experiment, each eye was evaluated separately. A Grass photostimulator was placed 10 cm from the recording eye and flashed a single white flash lasting 10 microseconds. A gold corneal ring electrode with a reference electrode attached to the lower eyelid detected retinal responses. For the AGN 199960 experiments, a Ganzfeld dome was used to generate a single flash and sensitive bipolar corneal electrodes were placed on both eyes, thus allowing simultaneous ERGs to be done. A cushioning agent on the cornea (methylcellulose) was used in each case, and the responses were amplified and stored in a computer. The results reported are a-wave amplitudes, which appear to be the ERG parameter most affected in clinical PDT. […] has the following structure: [drawing 3]

| Compound | effect of PDT on vascular outgrowth and associated edema ([1]; about 6 mg/m^2, treatment necessary every few months) | retinal and optic nerve damage from PDT ([1]; high doses (12 and 18 mg/m^2)) | area of ablation of CNV following PDT [2] | visual acuity ([3]; 4 and 12 weeks following treatment) | renewed neovascularization ([3]; 12 weeks following PDT treatment) | optic nerve axon loss ([3]; monitoring period up to 12 weeks) | Fluorescein angiography leakage in the treated tissue ([3]; one week after PDT and throughout the monitoring period) | visual inspection of the retina (whitening, edema) ([3]; topical twice a day one week before PDT, then every two days, 1 to 12 weeks after PDT) | A Wave Amplitude PDT Eye ([4]; 1000 ug/kg i.p. 1 hour prior to PDT, Grass photostimulator) | A Wave Amplitude % Control ([4]; 1000 ug/kg i.p. 1 hour prior to PDT) | A Wave Amplitude Control Eye ([4]; 1000 ug/kg i.p., Grass photostimulator) | post PDT decrease in retinal functionality ([4]; FIG. 1A, compared to a saline control) | loss in retinal function induced by PDT [4] | A Wave Amplitude PDT Eye ([4]; 300 ug/kg i.p. 1 hour prior to PDT, Ganzfeld dome) | A Wave Amplitude % Control ([4]; 300 ug/kg i.p. 1 hour prior to PDT) | A Wave Amplitude Control Eye ([4]; 300 ug/kg i.p., Ganzfeld dome) |
| --- | --- | --- | --- | --- | --- | --- | --- | --- | --- | --- | --- | --- | --- | --- | --- | --- |
| verteporfin [vertporfin] | effective to slow vascular outgrowth and associated edema somewhat | long term or permanent scarring of the retina, chronic absence of photoreceptor cells, and optic nerve atrophy |  |  |  |  |  |  |  |  |  |  |  |  |  |  |
| Brc1c(NC2=NCCN2)ccc2nccnc12 [Brimonidine] |  |  | does not affect | no discernable loss of vision | No evidence | no evidence | minimal leakage | healthy with no whitening | 90 ± 15 uV | 103 ± 8* % | 91 ± 21 uV | inhibits | inhibited |  |  |  |
| O=C1c2ccccc2CCC1Cc1c[nH]c(=S)[nH]1 (centres unmarked) [AGN 960] |  |  |  |  |  |  |  |  |  |  |  |  | inhibited | 212 ± 16 uV | 101 ± 13* % | 218 ± 29 uV |
